Experimental data as given in patent US20160343958A1, “ORGANIC TRANSISTOR, COMPOUND, ORGANIC SEMICONDUCTOR MATERIAL FOR NON-LIGHT-EMITTING ORGANIC SEMICONDUCTOR DEVICE, MATERIAL FOR ORGANIC TRANSISTOR, COATING SOLUTION FOR NON-LIGHT-EMITTING ORGANIC SEMICONDUCTOR DEVICE, AND ORGANIC SEMICONDUCTOR FILM FOR NON-LIGHT-EMITTING ORGANIC SEMICONDUCTOR DEVICE” (FUJIFILM Corporation, priority 2014, published 2016).

Test: Solubility in toluene
Type: physicochemical
Details: 5-level grade A-E
Experimental: Each of the compounds of the present invention or comparative compounds (2% by mass, 1% by mass, 0.5% by mass, or 0.1% by mass each) was mixed with toluene (1 mL), heated to 100° C., and then left to stand for 30 minutes at room temperature. […] For practical use, the compound needs to be evaluated to be A, B, C, or D. The compound preferably needs to be evaluated to be A, B, or C, more preferably needs to be evaluated to be A or B, and particularly preferably needs to be evaluated to be A.
E: Precipitation occurred at 0.1% by mass.

Structure (SMILES) | Solubility
Cc1ccc2c(c1)sc1c2ccc2c3ccc(C)cc3sc21 [comparative compound 2, reference compound] | E (Precipitation occurred at 0.1% by mass.)
CCCCCCCCc1ccc2c(c1)sc1c2ccc2c3ccc(CCCCCCCC)cc3sc21 [Compound example 6] | A (Precipitation did not occur at 2% by mass.)
CCCCCCCCc1ccc(-c2ccc3c(c2)sc2c3ccc3c4ccc(-c5ccc(CCCCCCCC)s5)cc4sc32)s1 [Compound example 62] | B (Precipitation did not occur at 1% by mass but occurred at 2% by mass.)
CCCCC(CC)Cc1ccc2c(c1)sc1c2ccc2c3ccc(CC(CC)CCCC)cc3sc21 (stereo not shown) [Compound example 407] | A (Precipitation did not occur at 2% by mass.)
CCCCCCCCCCCCc1ccc2cc3c(cc2c1)sc1c3ccc2c3ccc(CCCCCCCCCCCC)cc3sc21 [Compound example 344] | B (Precipitation did not occur at 1% by mass but occurred at 2% by mass.)
c1ccc(-c2cccc(-c3ccc4sc5c(ccc6c7cc(-c8cccc(-c9ccccc9)c8)ccc7sc65)c4c3)c2)cc1 [compound 3, reference compound] | E (Precipitation occurred at 0.1% by mass.)
c1ccc2c(c1)sc1c2ccc2c3ccccc3sc21 [comparative compound 1, reference compound] | E (Precipitation occurred at 0.1% by mass.)
CCCCCCCCCCCCc1ccc(-c2ccc3c(c2)sc2c3ccc3c4ccccc4sc32)cc1 [Compound example 372] | B (Precipitation did not occur at 1% by mass but occurred at 2% by mass.)
CCCCCCCCc1ccc2cc3c(cc2c1)sc1c3ccc2c3cc4ccc(CCCCCCCC)cc4cc3sc21 [Compound example 20] | B (Precipitation did not occur at 1% by mass but occurred at 2% by mass.)
CCCCCCCCCCCCc1ccc2c(c1)sc1c2ccc2c3ccccc3sc21 [Compound example 358] | B (Precipitation did not occur at 1% by mass but occurred at 2% by mass.)
CCCCCCCCc1ccc2c(c1)oc1c2ccc2c3ccc(CCCCCCCC)cc3oc21 [Compound example 416] | C (Precipitation did not occur at 0.5% by mass but occurred at 1% by mass.)
CCCCCCCCc1ccc(-c2ccc3c(c2)sc2c3ccc3c4ccc(-c5ccc(CCCCCCCC)cc5)cc4sc32)cc1 [Compound example 34] | B (Precipitation did not occur at 1% by mass but occurred at 2% by mass.)
c1ccc2c(c1)sc1c2ccc2c3cccc(-c4ccc5c6ccccc6c6ccccc6c5c4)c3sc21 [comparative compound 6, reference compound] | E (Precipitation occurred at 0.1% by mass.)
CCCc1ccc2c(c1)sc1c2ccc2c3ccc(CCC)cc3sc21 [Compound example 1] | B (Precipitation did not occur at 1% by mass but occurred at 2% by mass.)
CCCCCCCCCCCCc1ccc(-c2ccc3c(c2)sc2c3ccc3c4ccccc4sc32)s1 [Compound example 386] | B (Precipitation did not occur at 1% by mass but occurred at 2% by mass.)
CCCCCCC#Cc1ccc2c(c1)sc1c2ccc2c3ccc(C#CCCCCCC)cc3sc21 [Compound example 310] | B (Precipitation did not occur at 1% by mass but occurred at 2% by mass.)
CCCCCc1ccc2c(c1)sc1c2ccc2c3ccc(CCCCC)cc3sc21 [Compound example 3] | A (Precipitation did not occur at 2% by mass.)
CCCCCCCCc1ccc2sc3c(ccc4c5cc(CCCCCCCC)ccc5sc43)c2c1 [Compound example 396] | B (Precipitation did not occur at 1% by mass but occurred at 2% by mass.)
CCCCCCCCOc1ccc2c(c1)sc1c2ccc2c3ccc(OCCCCCCCC)cc3sc21 [Compound example 326] | B (Precipitation did not occur at 1% by mass but occurred at 2% by mass.)
CCCCCCCCCCCCc1ccc2c(c1)sc1c2ccc2c3ccc(CCCCCCCCCCCC)cc3sc21 [Compound example 10] | A (Precipitation did not occur at 2% by mass.)
CCCCCCCCCCCCc1ccc2cc3c(cc2c1)sc1c3ccc2c3cc4ccc(CCCCCCCCCCCC)cc4cc3sc21 [Compound example 24] | B (Precipitation did not occur at 1% by mass but occurred at 2% by mass.)
C[Si](C)(C)C#Cc1c(C#C[Si](C)(C)C)c2c3ccc(-c4cccs4)cc3sc2c2sc3cc(-c4cccs4)ccc3c12 [Compound example 427] | D (Precipitation did not occur at 0.1% by mass but occurred at 0.5% by mass.)
CCCCCCCC/C=C/c1ccc2c(c1)sc1c2ccc2c3ccc(/C=C/CCCCCCCC)cc3sc21 [Compound example 298] | B (Precipitation did not occur at 1% by mass but occurred at 2% by mass.)
CCCCCCCCCCCCCCCCCCc1ccc2c(c1)sc1c2ccc2c3ccc(CCCCCCCCCCCCCCCCCC)cc3sc21 [Compound example 16] | B (Precipitation did not occur at 1% by mass but occurred at 2% by mass.)
c1ccc(-c2ccc3sc4c5sc6ccc(-c7ccccc7)cc6c5c(-c5ccccc5)c(-c5ccccc5)c4c3c2)cc1 [compound 4, reference compound] | E (Precipitation occurred at 0.1% by mass.)
